How the values were obtained:
[1] = molecular target: T1, human D2 receptor (short isoform) (Homo sapiens, UniProt P14416); assay: D2 receptor binding assay (displacement of 3H-spiperone), reported as D2/D4 selectivity; settings: ratio D2/D4; 3H-spiperone 0.25 nM; D2 short isoform vs D4.2
T1 construct: 3H-spiperone displacement
Protocol: (§1) The potency of the test compound to reduce ^3 H-spiperone binding directly correlated to its binding affinity for the receptor.
CH4 C1 (rat pituitary) cells stably transfected with the human D2 receptor (short isoform) were grown in CO2 independent media in roller bottles (1500 cm^2) for 10 days. 100 μM ZnSO4 was added to the cells (the D2 promoter being zinc inducible). After 16 hours, fresh media was added to allow the cells to recover for 24 hours. The cells were harvested using versine and then centrifuged in a Sorval centrifuge for 10 minutes, at 5000 rpm (GS3 rotor). Pellets were quickly frozen in liquid nitrogen and stored at -80° C. until used in the binding assays. When used in the assay, cells were thawed on ice for 20 minutes. […] The receptor protein concentration was determined using the Pierce BCA assay.
(§2) The tubes were vortexed and incubated at room temperature for 90 minutes. The binding reaction was stopped by filtering using a Brandell Cell Harvester. The samples were filtered under vacuum over glass fibre filters (Whatman GF/B) presoaked for 2 hours in 0.3% polyethylenimine (PEI) in 50 mM Tris buffer (pH 7.4). The filters were then washed 3 times with 5 ml ice cold 50 mM Tris buffer (pH 7.4). Individual filter disks were put in scintillation vials (Biovials, Bechman). Ready Protein Plus liquid scintillant (5 ml, Beckman) was added and the vials counted by liquid scintillation spectrophotometry (Beckman LSC 6500) after equilibrating for three hours at room temperature to determine total binding (BT).
This assay employed the same procedures as the non-specific binding assay for D4 with the exception that 2 μM (final conc.) of (-) sulpiride (Research Chemicals Inc.) was used in place of dopamine.
(§3) The tubes were vortexed and incubated at room temperature for 90 minutes at which time the binding reaction was stopped by filtering. The filters were washed and counted using the same procedure as in the total binding assay described above to give the displacement binding value (BD).
(§4) IC50 was determined from an inhibition response curve, logit-log plot of %B/B0 vs concentration of test compound. Ki was calculated by the Cheng and Prustoff transformation: […]
where [L] is the concentration of ^3 H-spiperone used in the assay and KD is the dissociation constant of ^3 H-spiperone determined independently under the same binding conditions.

[2] = molecular target: T2, human D4 receptor (D4.2 sub-type) (Homo sapiens, UniProt P21917, DEL265-296); assay: D4 receptor binding assay (displacement of 3H-spiperone); settings: 3H-spiperone 0.25 nM, cell membranes, Cheng and Prustoff, read-out: D4 AFFINITY Ki
T2 construct: expressed in transfected cells; host or cells: HEK 298 (human embryonic kidney) cells, stably transfected
T2 sequence (P21917 with tags, fused parts or gaps DEL265-296): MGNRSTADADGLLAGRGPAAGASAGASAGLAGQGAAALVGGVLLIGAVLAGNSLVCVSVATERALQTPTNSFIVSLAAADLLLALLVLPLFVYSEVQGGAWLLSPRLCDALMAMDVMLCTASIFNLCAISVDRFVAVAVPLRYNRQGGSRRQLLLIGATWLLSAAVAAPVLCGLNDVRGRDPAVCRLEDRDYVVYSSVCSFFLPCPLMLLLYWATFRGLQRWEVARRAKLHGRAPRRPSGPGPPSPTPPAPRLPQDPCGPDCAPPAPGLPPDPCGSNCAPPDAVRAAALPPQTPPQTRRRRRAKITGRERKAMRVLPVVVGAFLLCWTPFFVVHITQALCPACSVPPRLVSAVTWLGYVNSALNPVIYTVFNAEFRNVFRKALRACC
Protocol: as §1
The cells were then centrifuged in a Sorval centrifuge for 10 min, 5000 rpm (GS3 rotor) and the pellets quickly frozen in liquid nitrogen and stored at -80° C. until used in binding assay. When used in the assay, cells were thawed on ice for 20 min and then 10 ml of incubation buffer (50 mM Tris, 1 mM EDTA, 4 mM MgCl2, 5 mM KCl, 1.5 mM CaCl2, 120 mM NaCl, pH 7.4) was added. […] Concentration of receptor protein was determined using the Pierce BCA assay.
as §2
The tubes were vortexed and incubated at room temperature for 90 minutes at which time the binding reaction was stopped by filtering. The filters were washed and counted using the same procedure as in the total binding assay described above to give the non-specific binding value (NSB).
as §3, §4

D4 receptor = settings: background, marketed products; read-out: D4 affinity, Ki; cited from earlier work
human D4 receptors [3] = molecular target: T3, human D4 receptors (Homo sapiens, UniProt P21917); assay: Functional agonist assay: decrease in forskolin-stimulated cAMP in D4 stably expressing CHO cells; type: cell-based; settings: forskolin 10 μM
T3 construct: expressed in transfected cells; host or cells: CHO Pro 5 cells, stably expressing
T3 sequence (P21917 1-419): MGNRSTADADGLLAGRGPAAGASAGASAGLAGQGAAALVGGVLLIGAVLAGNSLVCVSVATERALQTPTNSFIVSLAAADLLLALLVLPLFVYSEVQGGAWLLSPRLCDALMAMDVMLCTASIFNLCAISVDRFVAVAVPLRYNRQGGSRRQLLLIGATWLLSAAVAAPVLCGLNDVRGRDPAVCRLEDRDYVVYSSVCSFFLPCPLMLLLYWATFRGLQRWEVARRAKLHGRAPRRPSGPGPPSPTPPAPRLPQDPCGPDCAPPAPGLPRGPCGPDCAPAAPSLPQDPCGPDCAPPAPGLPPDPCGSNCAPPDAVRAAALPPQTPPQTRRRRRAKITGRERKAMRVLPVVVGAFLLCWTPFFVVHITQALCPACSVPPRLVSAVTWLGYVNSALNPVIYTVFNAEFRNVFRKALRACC
Protocol: The D4 receptor responds to dopamine and other agonists by reducing adenyl cyclase mediated production of cyclic AMP. Particular test compound 4-chloro-5H-dibenzo[b,e][1,4]diazepine was assayed for its ability to reverse dopamine inhibition of adenyl cyclase by the following procedure. Forskolin was used to elevate the basal adenyl cyclase activity.
(§5) CHO Pro 5 cells stably expressing human D4 receptors were plated in 6 well plates in DMEM (Dulbecco's Modified Eagle Medium)/F12(Nutrient Mixture F12 (Ham)) media with 10% FCS (fetal calf serum) and G418 (Geneticen Disulfate), and incubated at 37° C. in a CO2 incubator. The cells were allowed to grow to about 70% confluence before use in the assay.
To D4 stably expressing CHO cells prepared as previously described were added test compound and forskolin (10 μM final concentration). The cells were incubated, extracted and measured for cAMP concentration as above. Agonist activity of a test compound would result in a decrease in cAMP concentration compared to cells treated with forskolin (Cf) only.

human D4 receptors [4] = molecular target: T3, human D4 receptors; assay: Functional antagonist assay: reversal of dopamine inhibition of forskolin-stimulated adenyl cyclase (cAMP) in CHO Pro 5 cells; type: cell-based; settings: dopamine and forskolin both 10 μM, read-out: % REVERSAL OF DOPAMINE EFFECT
Protocol: The D4 receptor responds to dopamine and other agonists by reducing adenyl cyclase mediated production of cyclic AMP. […] Forskolin was used to elevate the basal adenyl cyclase activity.
as §5
Basal adenyl cyclase activity was determined from wells with only SFM+IBMX media added.
The cells were then incubated at 37° C. for 30 minutes in a CO2 incubator. Following incubation the media was aspirated from each well and then washed once with 2 mL of PBS (phosphate buffered saline). […] The cells from each well were then scraped and transferred into individual Eppendorf tubes. […]
Total inhibition (I0) of forskolin-stimulated adenyl cyclase activity by dopamine was determined as the difference in concentration of cAMP in the forskolin-treated cells (Cf) and dopamine-forskolin treated cells (Cd).
Net inhibition (I) of forskolin-stimulated adenyl cyclase activity by dopamine in the presence of an antagonist was determined as the difference in concentration of cAMP in the forskolin-treated cells (Cf) and test compound, dopamine and forskolin treated cells (C).

T1 sequence (P14416 with tags, fused parts or gaps DEL242-270): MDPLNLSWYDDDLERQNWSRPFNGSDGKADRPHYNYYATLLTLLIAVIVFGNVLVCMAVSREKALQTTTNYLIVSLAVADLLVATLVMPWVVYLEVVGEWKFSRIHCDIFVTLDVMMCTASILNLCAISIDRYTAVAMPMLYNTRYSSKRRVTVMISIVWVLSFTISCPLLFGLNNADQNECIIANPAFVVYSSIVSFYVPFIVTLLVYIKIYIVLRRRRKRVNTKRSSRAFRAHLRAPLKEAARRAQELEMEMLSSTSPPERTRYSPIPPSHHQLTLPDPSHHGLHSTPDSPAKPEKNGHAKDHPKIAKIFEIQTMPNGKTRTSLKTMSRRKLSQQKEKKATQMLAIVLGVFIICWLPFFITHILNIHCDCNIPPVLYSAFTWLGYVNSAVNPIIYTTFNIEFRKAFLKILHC

Compound: CN1CCN(C2=Cc3cc(C#N)ccc3Sc3ccccc32)CC1 [2-cyano-10-(4-methyl-piperazinyl)-dibenzo[b,f]thiepine]
- SELECTIVITY FOR D4, D2/D4 [1]: 21.4
- Ki [2]: 4.5 nM

Compound: CN1CCN(C2=Nc3cc(Cl)ccc3Oc3ccccc32)CC1 [isoloxapine]
- Ki (D4 receptor): ~20 nM

Compound: CN1CCN(C2=Nc3cc(Cl)c(Cl)cc3Nc3c(Cl)cccc32)CC1 [4,7,8-trichloro-11-(4-methyl-1-piperazinyl)-5H-dibenzo[b,e][1,4]diazepine]
- SELECTIVITY FOR D4, D2/D4 [1]: 18.8

Compound: CN1CCN(C2=Nc3ccccc3Nc3cccc(F)c32)CC1 [1-fluoro-11-(4-methyl-1-piperazinyl)-5H-dibenz[b,e][1,4]diazepine]
- SELECTIVITY FOR D4, D2/D4 [1]: 12.6

Compound: Cc1cc2c(cc1C)Nc1ccccc1C(N1CCN(C)CC1)=N2 [7,8-dimethyl-11-(4-methyl-1-piperazinyl)-5H-dibenzo[b,e][1,4]diazepine]
- SELECTIVITY FOR D4, D2/D4 [1]: 10.6

Compound: CN1CCN(C2=Nc3ccccc3Nc3c(Cl)cccc32)CC1 [4-Chloro-11-(4-methyl-1-piperazinyl)-5H-dibenzo[b,e][1,4]diazepine]
- dopamine agonist activity (decrease in cAMP compared to cells treated with forskolin) (human D4 receptors [3]): no dopamine agonist activity
- SELECTIVITY FOR D4, D2/D4 [1]: 187.5
- Ki [2]: 16.7 nM
- inhibition at 1 µM (human D4 receptors [4]; 1 μM test compound): 16%
- inhibition at 10 µM (human D4 receptors [4]; 10 μM test compound): 58%

Compound: CN1CCN(C2=Nc3cc(Cl)c(Cl)cc3Nc3ccc(Cl)cc32)CC1 [2,7,8-trichloro-11-(4-methyl-1-piperazinyl)-5H-dibenzo[b,e][1,4]diazepine]
- SELECTIVITY FOR D4, D2/D4 [1]: 10.7

Compound: CN1CCN(C2=Nc3ccccc3Nc3ccc(C(F)(F)F)cc32)CC1 [2-trifluoromethyl-11-(4-methyl-1-piperazinyl)-5H-dibenzo[b,e][1,4]diazepine]
- Ki [2]: 14.2 nM

Compound: CN1CCN(C2=Nc3ccccc3Oc3c2cccc3[N+](=O)[O-])CC1 [4-nitro-11-(4-methyl-1-piperazinyl)dibenz[b,f][1,4]oxazepine]
- SELECTIVITY FOR D4, D2/D4 [1]: 21.4

Compound: CN1CCN(C2=Nc3ccccc3Oc3c(C#N)cccc32)CC1 [4-cyano-11-(4-methyl-1-piperazinyl)dibenz[b,f][1,4]oxazepine]
- SELECTIVITY FOR D4, D2/D4 [1]: 64.4

From US5700445A, “N-methyl piperazine compounds having dopamine receptor affinity” (Allelix Biopharmaceuticals, Inc., priority 1994, dated 1997)
